The term chromatographic logP denotes a lipophilicity value derived from retention on a column. A lower chromatographic logP goes with lower lipophilicity. For orientation: LogP means the decadic logarithm of the partition coefficient of the neutral form, usually between octanol and water. A high value points to a more lipophilic compound.

One data set in a line: Measurement of Log P values by HPLC on reversed phase columns (EEC directive 79/831 Annex V.A8). Format: physicochemical. The following applies: method [a]: LC-UV, acidic range, 0.1% formic acid in water and acetonitrile as eluent. Here is the method: Measurement of Log P values as provided herein was performed according to EEC directive 79/831 Annex V.A8 by HPLC (High Performance Liquid Chromatography) on reversed phase columns with the following methods: • ^[a] Log P value is determined by measurement of LC-UV, in an acidic range, with 0.1% formic acid in water and acetonitrile as eluent (linear gradient from 10% acetonitrile to 95% acetonitrile). • ^[b] Log P value is determined by measurement of LC-UV, in a neutral range, with 0.001 molar ammonium acetate solution in water and acetonitrile as eluent (linear gradient from 10% acetonitrile to 95% acetonitrile). • ^[c] Log P value is determined by measurement of LC-UV, in an acidic range, with 0.1% phosphoric acid and acetonitrile as eluent (linear gradient from 10% acetonitrile to 95% acetonitrile).
If more than one Log P value is available within the same method, all the values are given and separated by “+”. […]
For the compound `C#Cc1cccc(Oc2cnc3ccccc3c2C(=O)N[C@@H](CON2C(=O)c3ccccc3C2=O)Cc2ccc(C)cc2C)c1` (racemic) [Compound 3-03], the chromatographic logP was found to be 4.44. `C#Cc1cccc(Oc2cnc3ccccc3c2C(=O)N[C@@H](CON)Cc2ccc(C)cc2Cl)c1` (racemic) [Compound 4-08] had a chromatographic logP of 2.87. `Cc1ccc(C[C@H](CCl)NC(=O)c2c(Oc3cccc(C(F)(F)F)c3)cnc3ccoc23)c(C)c1` (racemic) [Compound 10-06] came in with a chromatographic logP of 4.55. Compound `Cc1ccc(C[C@@H]2CON=C(c3c(Oc4cccc(C(F)F)c4)nnc4c3CCCC4)N2)c(C)c1` (racemic) [Compound I-028] displayed a chromatographic logP of 3.6.

In the case of `Cc1ccc(C[C@@H]2CON=C(c3c(Oc4cccc(Br)c4F)nnc4c3CCCC4)N2)c(C)c1` (racemic) [Compound I-024], the chromatographic logP worked out at 4.01. Compound `Cc1ccc(C[C@@H]2CON=C(c3c(Oc4cccc(C5CC5)c4F)nnc4c3CCC4)N2)c(C)c1` (racemic) [Compound I-029] displayed a chromatographic logP of 4.13.

The compound `Cc1ccc(C[C@H](CON2C(=O)c3ccccc3C2=O)NC(=O)c2c(Oc3cccc(Br)c3F)cnc3ccccc23)c(C)c1` (racemic) [Compound 3-06] showed a chromatographic logP of 4.78.

The compound `C#Cc1cccc(Oc2cnc3ccccc3c2C2=NOC[C@@H](Cc3ccc(C)cc3Cl)N2)c1` (racemic) [Compound I-025] showed a chromatographic logP of 3.91. For the compound `Cc1ccc(C[C@@H]2CON=C(c3c(Oc4cccc(C(F)(F)F)c4)nnc4c3CCC4)N2)c(C)c1` (racemic) [Compound I-027], the chromatographic logP is 3.87.

Consider `Cc1ccc(C[C@H](CON2C(=O)c3ccccc3C2=O)NC(=O)c2c(Oc3cccc(C(F)(F)F)c3)cnc3ccccc23)c(C)c1` (racemic) [Compound 3-02], for which the chromatographic logP came to 4.72. Compound `N[C@H](CCl)Cc1ccc(Br)cc1Cl` (racemic) [Compound 9-03] had a chromatographic logP of 1.37.

In turn, `Cc1ccc(C[C@@H]2CON=C(c3c(Oc4cccc(C5CC5)c4F)cnc4ccccc34)N2)c(Cl)c1` (racemic) [Compound I-021] registered a chromatographic logP of 4.55. Consider `Cc1ccc(C[C@@H]2CON=C(c3c(Br)cnc4nccnc34)N2)c(C)c1` (racemic) [Compound 7-01], for which the chromatographic logP was determined as 2.41. On the same count and under the same terms, to `Cc1ccc(C[C@H](CCl)NC(=O)c2c(Oc3cccc(C4CC4)c3F)cnc3ccccc23)c(Cl)c1` (racemic) [Compound 10-03] belongs 5; to `Cc1ccc(C[C@H](CCl)NC(=O)c2c(Oc3cccc(Br)c3F)cnc3ccccc23)c(Cl)c1` (racemic) [Compound 10-04], 4.7.

The compound `Cc1ccc(C[C@H](CCl)NC(=NO)c2c(Oc3cccc(C(F)F)c3)cnc3ccccc23)c(Cl)c1` (racemic) [Compound 12-04] had a chromatographic logP of 4.28. In turn, `Cc1ccc(C[C@@H]2CON=C(c3c(Oc4cccc(C(F)F)c4)cnc4ccccc34)N2)c(Cl)c1` (racemic) [Compound I-031] yielded a chromatographic logP of 3.98. Consider `Cc1ccc(C[C@H](CCl)NC(=NO)c2c(Oc3cccc(Br)c3F)cnc3ccccc23)c(Cl)c1` (racemic) [Compound 12-03], for which the chromatographic logP turned out to be 4.62. Still for that read-out and setting: as for `Cc1ccc(CC(CCl)NC(=O)c2c(Oc3cccc(C(F)(F)F)c3)cnc3ccccc23)c(C)c1` (racemic) [Compound 10-02, N-[(2RS)-1-chloro-3-(2,4-dimethylphenyl)propan-2-yl]-3-[3-(trifluoro-methyl)phenoxy]quinoline-4-carboxamide], the figure is 4.81.

With `Cc1ccc(C[C@@H]2CON=C(c3c(Oc4cccc(Cl)c4F)nnc4c3CCCC4)N2)c(C)c1` (racemic) [Compound I-023], the chromatographic logP is 3.91. Turning to `Cc1ccc(C[C@H](CON)NC(=O)c2c(Oc3cccc(C(F)(F)F)c3)nnc3c2CCC3)c(C)c1` (racemic) [Compound 4-13], the chromatographic logP is 2.78. On the same count and under the same terms, to `Cc1ccc(C[C@H](CON2C(=O)c3ccccc3C2=O)NC(=O)c2c(Oc3cccc(Br)c3F)nnc3c2CCCC3)c(C)c1` (racemic) [Compound 3-11] belongs 4.51; to `Cc1ccc(C[C@H](CCl)NC(=NO)c2c(Oc3cccc(C(F)(F)F)c3)cnc3ccoc23)c(C)c1` (racemic) [Compound 12-05], 4.4; to `C#Cc1cccc(Oc2cnc3ccccc3c2C(=O)N[C@@H](CON2C(=O)c3ccccc3C2=O)Cc2ccc(C)cc2Cl)c1` (racemic) [Compound 3-07], 4.47. Take `C=Cc1cccc(Oc2cnc3ccccc3c2C(=O)N[C@@H](CON2C(=O)c3ccccc3C2=O)Cc2ccc(C)cc2Cl)c1` (racemic) [Compound 3-08]: the chromatographic logP is 4.71. Compound `Cc1ccc(C[C@H](CCl)NC(=O)c2c(Br)cnc3nccnc23)c(C)c1` (racemic) [Compound 14-01] gave a chromatographic logP of 2.97. For the compound `Cc1ccc(C[C@H](CON2C(=O)c3ccccc3C2=O)NC(=O)c2c(Oc3cccc(C(F)(F)F)c3)nnc3c2CCC3)c(C)c1` (racemic) [Compound 3-12], the chromatographic logP came to 4.47. Take `C#Cc1cccc(Oc2cnc3ccccc3c2C(=O)N[C@@H](CON)Cc2ccc(C)cc2C)c1` (racemic) [Compound 4-04]: the chromatographic logP turned out to be 2.83. Consider `Cc1ccc(CC(CCl)NC(=O)c2c(Oc3cccc(C4CC4)c3F)nnc3ccccc23)c(C)c1` (racemic) [Compound 10-01, N-[(2RS)-1-chloro-3-(2,4-dimethylphenyl)propan-2-yl]-3-(3-cyclopropyl-2-fluorophenoxy)cinnoline-4-carboxamide], for which the chromatographic logP was 4.73. In the case of `Cc1ccc(C[C@H](CCl)N/C(=N\O)c2c(Oc3cccc(C4CC4)c3F)nnc3ccccc23)c(C)c1` (racemic) [Compound 12-01, N-[(2RS)-1-chloro-3-(2,4-dimethylphenyl)propan-2-yl]-3-(3-cyclopropyl-2-fluorophenoxy)-N′-hydroxycinnoline-4-carboximidamide], the chromatographic logP came to 4.7. Consider `Cc1ccc(C[C@@H](CON)NC(=O)c2c(Oc3cccc(C(F)(F)F)c3)nnc3cc(C)ccc23)c(C)c1` (racemic) [Compound 4-01], for which the LogP was 3.51 and the chromatographic logP amounted to 3.42. `Cc1ccc(C[C@H](CON2C(=O)c3ccccc3C2=O)NC(=O)c2c(Oc3cccc(C(F)F)c3)nnc3c2CCCC3)c(C)c1` (racemic) [Compound 3-13] gave a chromatographic logP of 4.13. With `Cc1ccc(CC(CON)NC(=O)c2c(Oc3cccc(Cl)c3)nnc3ccccc23)c(C)c1` (racemic) [Compound 4-03, N-[(2RS)-1-(aminooxy)-3-(2,4-dimethylphenyl)propan-2-yl]-3-(3-chloro-phenoxy)cinnoline-4-carboxamide], the chromatographic logP worked out at 2.8. In the case of `Cc1ccc(C[C@H](CON)NC(=O)c2c(Oc3cccc(C(F)(F)F)c3)cnc3ccccc23)c(C)c1` (racemic) [Compound 4-02], the chromatographic logP came to 3.17. As to `Cc1ccc(C[C@H](CON2C(=O)c3ccccc3C2=O)NC(=O)c2c(Oc3cccc(C4CC4)c3F)nnc3c2CCC3)c(C)c1` (racemic) [Compound 3-14], the chromatographic logP came to 4.56. For the compound `Cc1ccc(C[C@H](CCl)NC(=NO)c2c(Br)cnc3nccnc23)c(C)c1` (racemic) [Compound 15-01], the chromatographic logP worked out at 2.73. `Cc1ccc(C[C@H](N)CCl)c(C)c1` (racemic) [Compound 9-02] displayed a chromatographic logP of 1.24. The compound `Cc1ccc(C[C@H](CON2C(=O)c3ccccc3C2=O)NC(=O)c2c(Oc3cccc(C(F)(F)F)c3)nnc3c2CCCC3)c(C)c1` (racemic) [Compound 3-09] displayed a chromatographic logP of 4.59. In turn, `Cc1ccc(C[C@H](CON)NC(=O)c2c(Oc3cccc(C4CC4)c3F)cnc3ccccc23)c(C)c1` (racemic) [Compound 4-05] showed a chromatographic logP of 3.31. `CCOC(=O)c1c(Oc2cccc(C(F)(F)F)c2)nnc2c1CCC2` [Compound 1-22] yielded a chromatographic logP of 3.5.

On to `Cc1ccc(C[C@H](CON2C(=O)c3ccccc3C2=O)NC(=O)c2c(Oc3cccc(Cl)c3F)nnc3c2CCCC3)c(C)c1` (racemic) [Compound 3-10], for which the chromatographic logP stood at 4.47.

In turn, `Cc1ccc(C[C@@H]2CON=C(c3c(Oc4cccc(C(F)(F)F)c4)nnc4c3CCCC4)N2)c(C)c1` (racemic) [Compound I-022] showed a chromatographic logP of 3.99.

In the case of `Cc1ccc(C[C@H](CON)NC(=O)c2c(Oc3cccc(Br)c3F)cnc3ccccc23)c(C)c1` (racemic) [Compound 4-07], the chromatographic logP was 3.11. As to `C=Cc1cccc(Oc2cnc3ccccc3c2C(=O)N[C@@H](CON)Cc2ccc(C)cc2C)c1` (racemic) [Compound 4-06], the chromatographic logP turned out to be 3.09. `Cc1ccc(C[C@H](CON2C(=O)c3ccccc3C2=O)NC(=O)c2c(Oc3cccc(C4CC4)c3F)cnc3ccccc23)c(C)c1` (racemic) [Compound 3-04] came in with a chromatographic logP of 4.96. On to `Cc1ccc(C[C@H](CCl)NC(=NO)c2c(Oc3cccc(C4CC4)c3F)cnc3ccccc23)c(Cl)c1` (racemic) [Compound 12-02], for which the chromatographic logP was 4.93.

With `C=Cc1cccc(Oc2cnc3ccccc3c2C2=NOC[C@@H](Cc3ccc(C)cc3Cl)N2)c1` (racemic) [Compound I-026], the chromatographic logP is 4.19.

In turn, `C=Cc1cccc(Oc2cnc3ccccc3c2C(=O)N[C@@H](CON2C(=O)c3ccccc3C2=O)Cc2ccc(C)cc2C)c1` (racemic) [Compound 3-05] registered a chromatographic logP of 4.78.

The data set is the same for the next values; noted with them: method [b]: LC-UV, neutral range, 0.001 molar ammonium acetate solution in water and acetonitrile as eluent.
`Cc1ccc(C[C@@H](CON)NC(=O)c2c(Oc3cccc(C(F)(F)F)c3)nnc3cc(C)ccc23)c(C)c1` (racemic) [Compound 4-01] registered a chromatographic logP of 3.62. `CCOC(=O)c1c(Oc2cccc(C(F)(F)F)c2)nnc2c1CCC2` [Compound 1-22] showed a chromatographic logP of 3.35.

The values above are taken from US12673942B2, “Azabicyclyl-substituted heterocycles as fungicides” (Bayer Aktiengesellschaft, priority 2020, dated 2026).
